{"source": "paper PMC3082517", "about": "(PLoS Biology, 2011)", "key": {"[1]": {"molecular_target": "T1, p75^NTR (Rattus norvegicus, UniProt P07174)", "T1 construct": "expressed in transfected cells; host or cells: HEK293", "T1 sequence (P07174 30-425)": "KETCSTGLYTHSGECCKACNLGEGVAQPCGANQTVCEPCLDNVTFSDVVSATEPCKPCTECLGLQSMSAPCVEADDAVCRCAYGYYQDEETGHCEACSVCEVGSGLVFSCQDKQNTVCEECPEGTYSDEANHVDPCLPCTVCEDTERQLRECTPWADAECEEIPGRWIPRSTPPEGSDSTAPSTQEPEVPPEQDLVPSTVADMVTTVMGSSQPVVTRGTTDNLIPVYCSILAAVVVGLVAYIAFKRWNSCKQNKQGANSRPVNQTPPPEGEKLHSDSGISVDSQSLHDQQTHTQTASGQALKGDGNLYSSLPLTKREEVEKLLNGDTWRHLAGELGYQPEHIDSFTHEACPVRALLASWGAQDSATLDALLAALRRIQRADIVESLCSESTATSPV", "experiment": "Heterologous [3H]-DHEA displacement, HEK293^p75NTR cell membranes", "format": "binding"}, "[2]": {"molecular_target": "TrkA receptor", "settings": "extracellular and cytoplasmic juxtamembrane domains of TrkA; read-out: Kd of binding to TrkA receptor; cited from earlier work"}, "[3]": {"molecular_target": "T2, TrkA (Rattus norvegicus, UniProt P35739)", "T2 sequence (P35739 33-799)": "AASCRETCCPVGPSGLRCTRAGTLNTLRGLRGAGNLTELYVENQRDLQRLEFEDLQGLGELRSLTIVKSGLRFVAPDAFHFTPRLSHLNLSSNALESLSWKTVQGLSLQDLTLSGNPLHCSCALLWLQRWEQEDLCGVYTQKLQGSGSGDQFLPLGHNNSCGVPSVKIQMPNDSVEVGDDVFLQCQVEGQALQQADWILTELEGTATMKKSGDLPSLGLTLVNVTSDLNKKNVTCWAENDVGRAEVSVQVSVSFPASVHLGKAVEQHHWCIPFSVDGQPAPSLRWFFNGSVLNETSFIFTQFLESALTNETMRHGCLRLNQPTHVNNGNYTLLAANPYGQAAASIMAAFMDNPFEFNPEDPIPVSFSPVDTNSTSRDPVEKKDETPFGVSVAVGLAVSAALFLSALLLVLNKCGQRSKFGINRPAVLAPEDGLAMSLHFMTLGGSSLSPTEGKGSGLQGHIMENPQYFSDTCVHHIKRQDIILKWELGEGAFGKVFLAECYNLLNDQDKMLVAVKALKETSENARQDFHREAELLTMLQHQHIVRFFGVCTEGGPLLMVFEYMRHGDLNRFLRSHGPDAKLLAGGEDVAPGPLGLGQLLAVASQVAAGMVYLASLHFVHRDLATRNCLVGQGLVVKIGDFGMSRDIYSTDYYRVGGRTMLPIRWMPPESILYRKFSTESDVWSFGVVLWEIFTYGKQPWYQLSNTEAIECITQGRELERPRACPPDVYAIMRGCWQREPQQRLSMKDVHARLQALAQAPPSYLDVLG", "experiment": "Heterologous [3H]-DHEA displacement, HEK293^TrkA cell membranes", "format": "binding", "parameters": "expressed in transfected cells; host or cells: HEK293"}, "[4]": {"molecular_target": "T2, TrkA", "experiment": "TrkA phosphorylation in HEK293^TrkA transfectants (anti-tyrosine IP, Western blot)", "format": "cell-based", "parameters": "expressed in transfected cells; host or cells: HEK293", "settings": "10 min (and 20 min), steroids 100 nM, NGF 100 ng/ml", "method": "HEK293 cells were transfected with the appropriate plasmids (TrkA, p75^NTR, RIP2, TRAF-6, and RhoGDI) by using Lipofectamine 2000 (Invitrogen). Cells were harvested 48 h after transfection and suspended in lysis buffer (50 mM Tris-HCl, 0.15 M NaCl, 1% Triton-X100, pH 7.4) supplemented with protease inhibitors. Lysates were precleared for 1 h with Protein A-Sepharose beads (Amersham) and immunoprecipitated with the appropriate antibody (pTyr, Flag, or c-myc) overnight at 4°C. Protein A Sepharose beads were incubated with the lysates for 4 h at 4°C with gentle shaking. […] Beads were collected by centrifugation, washed four times with lysis buffer, and resuspended in SDS loading buffer. Proteins were separated by SDS/PAGE, followed by immunoblotting with specific antibodies.\nPC12 or HEK293 cells lysates were electrophoresed through a 12% SDS-polyacrylamide gel, and then proteins were transferred to nitrocellulose membranes, which were processed according to standard Western blotting procedures, as previously described. To detect protein levels, membranes were incubated with the appropriate antibodies: Bcl-2 (dilution 1∶500), phospho TrkA (dilution 1∶500), total TrkA (dilution1∶500), p75^NTR (dilution 1∶500), phospho Shc (dilution 1∶1000), total Shc (dilution 1∶1000), phospho Akt (dilution 1∶500), total Akt (dilution 1∶500), phospho ERK1/2 (dilution 1∶500), and total ERK1/2 (dilution 1∶500). Proteins were visualized using the ECL Western blotting kit (ECL Amersham Biosciences, UK), and blots were exposed to Kodak X-Omat AR films. A PC-based Image Analysis program was used to quantify the intensity of each band (Image Analysis, Inc., Ontario, Canada).\nTo normalize for protein content the blots were stripped and stained with GAPDH antibody (dilution 1∶1000); the concentration of each target protein was normalized versus GAPDH. Where phosphorylation of TrkA or kinases was measured, membranes were first probed for the phosphorylated form of the protein, then stripped, and probed for the total protein."}, "[5]": {"molecular_target": "p75NTR (Homo sapiens) (UniProt P08138)", "sequence (P08138 29-250)": "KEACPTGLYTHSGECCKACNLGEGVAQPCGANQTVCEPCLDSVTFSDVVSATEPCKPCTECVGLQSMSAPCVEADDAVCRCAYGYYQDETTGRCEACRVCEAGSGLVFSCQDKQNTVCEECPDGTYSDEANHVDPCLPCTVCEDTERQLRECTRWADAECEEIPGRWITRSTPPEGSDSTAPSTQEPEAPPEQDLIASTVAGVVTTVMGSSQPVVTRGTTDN", "settings": "cited from earlier work"}, "[6]": {"molecular_target": "T3, rat TrkA receptor expressed in HEK293 cells (HEK293^TrkA) (rat, UniProt P35739 33-799)", "T3 construct": "TrkA (NGF receptor tyrosine kinase), rat, expressed from the pHA vector backbone; source: HEK293, transfected (Lipofectamine 2000); crude membranes and whole cells", "T3 sequence (P35739 33-799)": "as the sequence (P35739 33-799) above", "experiment": "radioligand binding; homologous [125I]-NGF displacement with unlabeled NGF on membranes isolated from HEK293^TrkA and HEK293^p75NTR transfectants", "settings": "one partner purified"}, "[7]": {"molecular_target": "T4, rat p75^NTR receptor expressed in HEK293 cells (HEK293^p75NTR) (rat, UniProt P07174 30-425)", "T4 construct": "also called p75 neurotrophin receptor; source: HEK293, transfected (Lipofectamine 2000); crude membranes, whole cells and lysate", "T4 sequence (looked up)": "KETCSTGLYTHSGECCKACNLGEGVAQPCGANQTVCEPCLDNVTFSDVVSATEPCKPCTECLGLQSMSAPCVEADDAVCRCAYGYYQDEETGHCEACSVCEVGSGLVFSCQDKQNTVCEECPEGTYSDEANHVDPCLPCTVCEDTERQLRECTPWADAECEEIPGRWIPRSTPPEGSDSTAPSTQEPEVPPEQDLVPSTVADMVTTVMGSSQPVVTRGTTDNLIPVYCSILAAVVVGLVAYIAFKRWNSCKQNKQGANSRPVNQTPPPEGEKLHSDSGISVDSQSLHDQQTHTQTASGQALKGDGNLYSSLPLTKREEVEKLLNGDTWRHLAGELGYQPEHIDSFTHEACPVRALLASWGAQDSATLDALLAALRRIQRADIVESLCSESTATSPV", "experiment": "radioligand binding; homologous [125I]-NGF displacement with unlabeled NGF on membranes isolated from HEK293^TrkA and HEK293^p75NTR transfectants", "settings": "one partner purified"}, "[8]": {"molecular_target": "T3, rat TrkA receptor expressed in HEK293 …", "experiment": "radioligand binding; heterologous displacement of 1 nM [3H]-DHEA (a steroid) by unlabeled NGF (10^-12-10^-6 M) on membranes (2 mg/ml) of HEK293^TrkA and HEK293^p75NTR cells, PBS pH 7.4 with protease inhibitors, collected on GF/B filters", "settings": "one partner purified"}, "[9]": {"molecular_target": "T4, rat p75^NTR receptor expressed in …", "experiment": "radioligand binding; heterologous displacement of 1 nM [3H]-DHEA (a steroid) by unlabeled NGF (10^-12-10^-6 M) on membranes (2 mg/ml) of HEK293^TrkA and HEK293^p75NTR cells, PBS pH 7.4 with protease inhibitors, collected on GF/B filters", "settings": "one partner purified"}}, "data": [{"molecule": "C[C@@H]1C[C@H]2[C@@H]3CCC4=CC(=O)C=C[C@]4(C)[C@@]3(F)[C@@H](O)C[C@]2(C)[C@@]1(O)C(=O)CO", "note": "[dexamethasone]", "values": [{"measurement": "displacement of [3H]-DHEA binding (in words)", "setting": "[1]; HEK293^p75NTR membranes, competitor up to 1000 nM", "result": "ineffective"}]}, {"molecule": "CC(C)=CCC[C@]1(C)C=Cc2c(O)c3c(c(CC=C(C)C)c2O1)O[C@]12C(=C[C@@H]4CC1C(C)(C)O[C@@]2(C/C=C(/C)C(N)=O)C4=O)C3=O", "note": "[gambogic amide]", "values": [{"measurement": "Kd", "setting": "[2]", "result": 75, "unit": "nM"}]}, {"molecule": "C[C@]12CC[C@H]3[C@@H](CCC4=CC(=O)CC[C@@]43C)[C@@H]1CC[C@@H]2O", "note": "[testosterone]", "values": [{"measurement": "IC50", "setting": "[1]", "result": "7.4 ± 3.2", "unit": "nM"}, {"measurement": "IC50", "setting": "[3]", "result": "5.3 ± 2.1", "unit": "nM"}, {"measurement": "phosphorylation of TrkA", "setting": "[4]", "result": "unable to increase"}]}, {"molecule": "NGF (from UniProt P01138)", "values": [{"measurement": "Kd", "setting": "[5]", "result": 1, "unit": "nM"}]}, {"molecule": "nerve growth factor (NGF), unlabeled (ligand, UniProt P01139 122-241, looked up, nerve growth factor (NGF); The species of the NGF is told nowhere; also called unlabeled NGF) SSTHPVFHMGEFSVCDSVSVWVGDKTTATDIKGKEVTVLAEVNINNSVFRQYFFETKCRASNPVESGCRGIDSKHWNSYCTTTHTFVKALTTDEKQAAWRFIRIDTACVCVLSRKATRRG", "values": [{"measurement": "IC50", "setting": "[6]", "result": "0.3 ± 0.09", "unit": "nM"}, {"measurement": "IC50", "setting": "[7]", "result": "1.7 ± 0.38", "unit": "nM"}, {"measurement": "IC50", "setting": "[8]", "result": "0.8 ± 0.2", "unit": "nM"}, {"measurement": "IC50", "setting": "[9]", "result": "1.19 ± 0.45", "unit": "nM"}]}]}
